Where “and” joins values, the source holds several entries; their conditions need not be identical. Equal values may be shown once. Inconclusive results and toxic doses are left out. No stated cut-off is given here; in the data, active means T/C of 150% or more; inactive means T/C below 125%.
System: L1210 leukemia ip in BDF1 mice, survival T/C
Assay: NCI In Vivo Anticancer Drug Screen. Data for tumor model L1210 Leukemia (intraperitoneal) in B6D2F1 (BDF1) mice
Settings: endpoint: mean survival time, higher = longer survival
Summary of the method: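 Tumor cells were implanted, animals were treated, and survival was followed. The result divides the treated measurement by the vehicle-control measurement.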

[1] = dose: 100.0 mg/kg/injection, schedule: Q01DX009 (ip), vehicle: saline
[2] = dose: 100.0 mg/kg/injection, schedule: Q04DX003 (ip), vehicle: Klucel (hydroxypropylcellulose) (HPC)
[3] = dose: 200.0 mg/kg/injection, schedule: Q01DX009 (ip), vehicle: saline
[4] = dose: 200.0 mg/kg/injection, schedule: Q04DX003 (ip), vehicle: Klucel (hydroxypropylcellulose) (HPC)
[5] = dose: 400.0 mg/kg/injection, schedule: Q01DX009 (ip), vehicle: saline
[6] = dose: 400.0 mg/kg/injection, schedule: Q04DX003 (ip), vehicle: Klucel (hydroxypropylcellulose) (HPC)
[7] = dose: 100.0 mg/kg/injection, schedule: Q01DX001 (ip), vehicle: saline
[8] = dose: 200.0 mg/kg/injection, schedule: Q01DX001 (ip), vehicle: saline
[9] = dose: 400.0 mg/kg/injection, schedule: Q01DX001 (ip), vehicle: saline
[10] = dose: 100.0 mg/kg/injection, schedule: Q01DX009 (ip), vehicle: saline with Tween-80
[11] = dose: 200.0 mg/kg/injection, schedule: Q01DX009 (ip), vehicle: saline with Tween-80
[12] = dose: 400.0 mg/kg/injection, schedule: Q01DX009 (ip), vehicle: saline with Tween-80
[13] = dose: 25.0 mg/kg/injection, schedule: Q01DX009 (ip), vehicle: saline
[14] = dose: 50.0 mg/kg/injection, schedule: Q01DX009 (ip), vehicle: saline
[15] = dose: 100.0 mg/kg/injection, schedule: Q01DX009 (ip), vehicle: Klucel (hydroxypropylcellulose) (HPC)
[16] = dose: 200.0 mg/kg/injection, schedule: Q01DX009 (ip), vehicle: Klucel (hydroxypropylcellulose) (HPC)
[17] = dose: 400.0 mg/kg/injection, schedule: Q01DX009 (ip), vehicle: Klucel (hydroxypropylcellulose) (HPC)
[18] = dose: 100.0 mg/kg/injection, schedule: Q04DX002 (ip), vehicle: Klucel (hydroxypropylcellulose) (HPC)
[19] = dose: 200.0 mg/kg/injection, schedule: Q04DX002 (ip), vehicle: Klucel (hydroxypropylcellulose) (HPC)
[20] = dose: 400.0 mg/kg/injection, schedule: Q04DX002 (ip), vehicle: Klucel (hydroxypropylcellulose) (HPC)

Measured: T/C

CC1=CCC2(C)C(=O)C1CC1=C2CC(C)(C)CC1=O (stereo not drawn)
inactive: [1] 92 % of control | [2] 101 % of control | [3] 94 % of control | [4] 98 % of control | [5] 101 % of control | [6] 98 % of control

Cc1ccc(S(=O)(=O)N2CCC(Br)C(=O)c3ccccc32)cc1 (stereo not drawn)
inactive: [7] 94 % of control | [1] 107 % of control | [8] 107 % of control | [3] 109 % of control | [9] 100 % of control | [5] 97 % of control

COc1ccc(/C=N/N=C(\N)N[N+](=O)[O-])cc1OC
inactive: [10] 102 % of control | dose: 100.0 mg/kg/injection, schedule: Q04DX003 (ip), vehicle: saline sonified 92 % of control | [11] 98 % of control | dose: 200.0 mg/kg/injection, schedule: Q04DX003 (ip), vehicle: saline sonified 97 % of control | [12] 97 % of control | dose: 400.0 mg/kg/injection, schedule: Q04DX003 (ip), vehicle: saline sonified 91 % of control

O=S(=O)(O)c1ccccc1O
inactive: [13] 101 % of control | [14] 98 % of control

N#CC1CNC(=S)N=C1c1ccccc1 (stereo not drawn)
inactive: [2] 100 % of control | [4] 95 % of control

O=C(N/N=C/c1ccc2c(c1)CCC2)c1ccc(S(=O)(=O)O)cc1
inactive: [2] 97 % of control | [4] 104 % of control | [6] 97 % of control

CCC[CH2][Sn]1([CH2]CCC)[O]C(=O)C2C(C=C(C)C)C=C(C)C(C)C2C(=O)[O]1 (stereo not drawn)
inactive: dose: 5.0 mg/kg/injection, schedule: Q01DX001 (ip), vehicle: saline 93 % of control | dose: 10.0 mg/kg/injection, schedule: Q01DX001 (ip), vehicle: saline 104 % of control | dose: 20.0 mg/kg/injection, schedule: Q01DX001 (ip), vehicle: saline 104 % of control | dose: 40.0 mg/kg/injection, schedule: Q01DX001 (ip), vehicle: saline 96 % of control | dose: 80.0 mg/kg/injection, schedule: Q01DX001 (ip), vehicle: saline 102 % of control | [7] 117 % of control

CC(=O)Oc1ccccc1C1OC(=O)c2ccccc2N1C(C)=O (stereo not drawn)
inactive: dose: 100.0 mg/kg/injection, schedule: Q01DX001 (ip), vehicle: saline with Tween-80 106 % of control | [10] 101 % of control and 103 % of control | dose: 100.0 mg/kg/injection, schedule: Q04DX002 (ip), vehicle: saline with Tween-80 105 % of control and 87 % of control | dose: 200.0 mg/kg/injection, schedule: Q01DX001 (ip), vehicle: saline with Tween-80 104 % of control | [11] 93 % of control and 102 % of control | dose: 200.0 mg/kg/injection, schedule: Q04DX002 (ip), vehicle: saline with Tween-80 96 % of control and 97 % of control | dose: 400.0 mg/kg/injection, schedule: Q01DX001 (ip), vehicle: saline with Tween-80 103 % of control | [12] 93 % of control | dose: 400.0 mg/kg/injection, schedule: Q04DX002 (ip), vehicle: saline with Tween-80 94 % of control and 105 % of control

C#CCOP(=O)(OCC)OCC
inactive: [1] 105 % of control | [3] 103 % of control

CCN(CC)CC(=O)NCC(CCCN1CCCCC1)(c1cccc2ccccc12)C(C)C (stereo not drawn)
inactive: dose: 12.5 mg/kg/injection, schedule: Q01DX009 (ip), vehicle: saline 91 % of control | dose: 12.5 mg/kg/injection, schedule: Q04DX003 (ip), vehicle: saline 98 % of control | [13] 90 % of control | dose: 25.0 mg/kg/injection, schedule: Q04DX003 (ip), vehicle: saline 95 % of control | [14] 86 % of control | dose: 50.0 mg/kg/injection, schedule: Q04DX003 (ip), vehicle: saline 96 % of control

Cc1cc(O)c(C(C)(C)C)cc1N=O
inactive: dose: 50.0 mg/kg/injection, schedule: Q04DX003 (ip), vehicle: saline + alcohol 104 % of control | dose: 100.0 mg/kg/injection, schedule: Q04DX003 (ip), vehicle: saline + alcohol 101 % of control | dose: 200.0 mg/kg/injection, schedule: Q04DX003 (ip), vehicle: saline + alcohol 95 % of control

COC(=O)CC(OC)OC
inactive: [10] 107 % of control | [1] 103 % of control | dose: 100.0 mg/kg/injection, schedule: Q04DX003 (ip), vehicle: saline with Tween-80 89 % of control | [11] 100 % of control | [3] 103 % of control | dose: 200.0 mg/kg/injection, schedule: Q04DX003 (ip), vehicle: saline with Tween-80 102 % of control | [12] 97 % of control | [5] 105 % of control | dose: 400.0 mg/kg/injection, schedule: Q04DX003 (ip), vehicle: saline with Tween-80 101 % of control

CCCCCCCCCCCCCCCCCC(=O)N/N=C/C(=C\c1ccccc1)CCCCCC
inactive: [15] 90 % of control | [16] 98 % of control | [17] 93 % of control

N#Cc1nccc2ccccc12
inactive: [18] 106 % of control | [19] 103 % of control | [20] 100 % of control

COC(=O)C(C(C)C)N(C)C(=O)OC(C)(C)C (stereo not drawn)
inactive: dose: 100.0 mg/kg/injection, schedule: Q01DX001 (ip), vehicle: other 104 % of control | dose: 200.0 mg/kg/injection, schedule: Q01DX001 (ip), vehicle: other 102 % of control | dose: 400.0 mg/kg/injection, schedule: Q01DX001 (ip), vehicle: other 100 % of control

OCCN1CC2CCCC1O2 (stereo not drawn)
inactive: dose: 50.0 mg/kg/injection, schedule: Q01DX001 (ip), vehicle: saline 101 % of control | [7] 101 % of control | [8] 103 % of control | [9] 101 % of control

Cc1ccc(S(=O)(=O)Nc2ccccc2)c(CC(O)(c2ccccc2)c2ccccc2)c1
inactive: dose: 50.0 mg/kg/injection, schedule: Q01DX009 (ip), vehicle: saline with Tween-80 93 % of control | [10] 86 % of control | [11] 93 % of control

Cc1cc(Cl)ccc1OCC(=O)OCCC1=CCC2CC1C2(C)C (stereo not drawn)
inactive: [1] 94 % of control | [3] 100 % of control | [5] 102 % of control

O=C(Nc1ccccc1C(=O)N/N=C/c1cccc(O)c1)c1ccccc1
inactive: [15] 103 % of control | [16] 89 % of control | [17] 97 % of control

c1ccc(-c2ccns2)cc1
inactive: dose: 50.0 mg/kg/injection, schedule: Q01DX001 (ip), vehicle: carboxymethylcellulose (CMC) 89 % of control | dose: 100.0 mg/kg/injection, schedule: Q01DX001 (ip), vehicle: carboxymethylcellulose (CMC) 89 % of control | dose: 200.0 mg/kg/injection, schedule: Q01DX001 (ip), vehicle: carboxymethylcellulose (CMC) 93 % of control

Nc1nc(SCc2ccccc2Cl)cc(C(=O)O)n1
inactive: dose: 50.0 mg/kg/injection, schedule: Q01DX Z (ip), vehicle: methylcellulose (MC) 102 % of control

[O-][N+](Cc1ccccc1)=Nc1ccccc1
inactive: dose: 100.0 mg/kg/injection, schedule: Q01DX001 (ip), vehicle: Klucel (hydroxypropylcellulose) (HPC) 100 % of control | dose: 200.0 mg/kg/injection, schedule: Q01DX001 (ip), vehicle: Klucel (hydroxypropylcellulose) (HPC) 96 % of control | dose: 400.0 mg/kg/injection, schedule: Q01DX001 (ip), vehicle: Klucel (hydroxypropylcellulose) (HPC) 89 % of control

CCCCCCCCSC(=S)S.[Fe]
inactive: [18] 88 % of control | [19] 95 % of control | [20] 91 % of control

CN(C)CC/C(=N\N=C(N)N)c1ccccc1
inactive: dose: 15.0 mg/kg/injection, schedule: Q01DX Z (ip), vehicle: methylcellulose (MC) 96 % of control | dose: 30.0 mg/kg/injection, schedule: Q01DX Z (ip), vehicle: methylcellulose (MC) 90 % of control | dose: 30.0 mg/kg/injection, schedule: Q01DX Z (oral), vehicle: methylcellulose (MC) 89 % of control | dose: 60.0 mg/kg/injection, schedule: Q01DX Z (ip), vehicle: methylcellulose (MC) 94 % of control | dose: 60.0 mg/kg/injection, schedule: Q01DX Z (oral), vehicle: methylcellulose (MC) 91 % of control

COC(=O)CC1C(=O)C(C)(C(=O)OC)CCC1c1ccc(OC)cc1 (stereo not drawn)
inactive: [1] 96 % of control | dose: 100.0 mg/kg/injection, schedule: Q04DX003 (ip), vehicle: saline 100 % of control | [3] 90 % of control | dose: 200.0 mg/kg/injection, schedule: Q04DX003 (ip), vehicle: saline 94 % of control | [5] 93 % of control | dose: 400.0 mg/kg/injection, schedule: Q04DX003 (ip), vehicle: saline 94 % of control
